Tests used:
Assay in all cases: relative viability (nuclei count vs DMSO), 5 days (fraction); higher = more cells survive
[1] = compound: N=C1NC(=O)/C(=C/c2ccc(O)cc2)S1 [Mirin] + CC(=O)Nc1cccc(-n2c(=O)n(C3CC3)c(=O)c3c(Nc4ccc(I)cc4F)n(C)c(=O)c(C)c32)c1 [Trametinib] (partner 0.02 µM)
Summary of the method: (§1)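 Dosing by pin tool came one day after lung cancer cell lines were seeded in 1536-well plates, using either one drug or a fixed anchor-drug dose plus five library-drug doses (not always all listed) in √10 steps. After 5 days, nuclei were counted on 4× images. Relative viability is treated-well nuclei count divided by vehicle-well nuclei count, and values are medians of duplicate plates.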

[2] = compound: CCC1=CN=CN=C1N2CCN(CC2)CC3=NC4=C(N3)C=C(C=C4)C(F)(F)F + Nc1nc2[nH]cc(CCc3ccc(C(=O)N[C@@H](CCC(=O)O)C(=O)O)cc3)c2c(=O)[nH]1 [Pemetrexed] (partner 0.2 µM)
Summary of the method: as §1

[3] = compound: CCC1=CN=CN=C1N2CCN(CC2)CC3=NC4=C(N3)C=C(C=C4)C(F)(F)F + NC(=O)Nc1cc(-c2cccc(F)c2)sc1C(=O)N[C@H]1CCCNC1 [AZD7762] (partner 0.2 µM)
Summary of the method: as §1

[4] = compound: CCC1=CN=CN=C1N2CCN(CC2)CC3=NC4=C(N3)C=C(C=C4)C(F)(F)F + Nc1ncn([C@H]2C[C@H](O)[C@@H](CO)O2)c(=O)n1 [Decitabine] (partner 2 µM)
Summary of the method: as §1

Cell Line	relative viability ([1]; first compound 0.25 µM)	relative viability ([1]; first compound 0.7906 µM)	relative viability ([1]; first compound 2.5 µM)	relative viability ([1]; first compound 7.906 µM)	relative viability ([1]; first compound 25 µM)	relative viability ([2]; first compound 0.04 µM)	relative viability ([2]; first compound 0.1265 µM)	relative viability ([2]; first compound 0.4 µM)	relative viability ([2]; first compound 1.265 µM)	relative viability ([2]; first compound 4 µM)	relative viability ([3]; first compound 0.04 µM)	relative viability ([3]; first compound 0.1265 µM)	relative viability ([3]; first compound 0.4 µM)	relative viability ([3]; first compound 1.265 µM)	relative viability ([3]; first compound 4 µM)	relative viability ([4]; first compound 0.04 µM)	relative viability ([4]; first compound 0.1265 µM)	relative viability ([4]; first compound 0.4 µM)	relative viability ([4]; first compound 1.265 µM)	relative viability ([4]; first compound 4 µM)
NCI-H1666	0.909	0.764	0.77	0.607	0.772	0.745	0.831	0.861	0.81	0.939	0.864	0.77	0.767	0.716	0.815	0.746	0.733	0.699	0.65	0.719
NCI-H1734	0.688	0.749	0.646	0.633	0.675	0.449	0.39	0.408	0.422	0.435	0.619	0.626	0.562	0.564	0.782	0.458	0.465	0.566	0.499	0.489
NCI-H1755	0.745	0.793	0.755	0.771	0.841	0.425	0.453	0.754	0.411	0.454	0.579	0.528	0.434	0.395	0.602	0.759	0.693	0.729	0.72	0.759
NCI-H1792	0.422	0.36	0.43	0.421	0.332	0.773	0.736	0.82	–	0.665	0.666	0.66	0.527	–	0.685	0.543	0.437	0.57	–	0.523
NCI-H1793	0.497	–	0.39	0.352	0.607	0.862	0.786	0.613	0.52	0.82	0.548	0.407	0.392	0.334	0.347	0.479	0.484	0.436	0.428	0.432
NCI-H1915	0.29	0.332	0.28	0.328	0.389	0.537	0.511	0.529	0.479	0.498	0.684	0.688	0.694	0.597	0.734	0.24	0.262	0.261	0.272	0.263
NCI-H1944	0.35	0.397	0.387	0.387	0.32	0.702	0.561	0.61	0.541	0.699	0.757	0.512	0.465	0.379	0.607	0.476	0.415	0.426	0.391	0.435
NCI-H1975	0.379	0.337	0.365	0.337	0.55	0.318	0.295	0.298	0.298	0.276	0.662	0.744	0.713	0.645	0.746	0.358	0.396	0.41	0.339	0.393
NCI-H1993	0.506	0.519	0.533	0.336	0.546	0.597	0.644	0.575	0.513	0.674	0.747	0.822	0.726	0.783	0.678	0.563	0.62	0.621	0.522	0.51
NCI-H2085	0.514	0.465	0.519	0.511	0.59	0.818	0.789	0.84	0.772	0.845	0.75	0.941	0.987	0.791	1.03	0.487	0.526	0.557	0.476	0.573
NCI-H2087	0.292	0.211	0.161	0.19	0.209	0.634	0.732	0.72	0.632	0.55	1.34	1.26	1.43	1.17	1.21	0.278	0.234	0.331	0.271	0.209
NCI-H2126	0.604	0.568	0.552	0.56	0.501	0.75	0.695	0.725	0.657	0.709	0.97	1.02	0.957	1.02	1.17	0.598	0.58	0.595	0.541	0.58
NCI-H2170	0.981	0.875	0.976	0.915	0.859	0.265	0.266	0.291	0.256	0.263	0.899	0.832	0.83	0.724	0.941	0.44	0.462	0.451	0.433	0.461
NCI-H2342	0.805	0.853	0.803	–	0.751	0.785	0.751	0.652	0.518	0.625	0.441	0.389	0.467	0.397	0.419	0.689	0.728	0.707	0.575	0.513
NCI-H2347	0.301	0.313	0.26	0.3	0.274	0.422	0.408	0.434	0.373	0.442	0.708	0.699	0.823	0.645	0.905	0.666	0.551	0.63	0.613	0.529
NCI-H2405	0.615	–	0.6	0.594	0.645	1.02	1.05	0.992	–	1.15	0.772	0.735	0.674	–	0.901	0.748	0.715	0.711	–	0.795
NCI-H3122	0.221	0.218	0.25	0.176	0.221	0.21	0.184	0.202	0.203	0.215	0.971	0.947	0.957	1.04	0.977	0.387	0.459	0.418	0.452	0.351
PC-3 [JPC-3]	0.669	0.72	0.7	0.73	0.786	–	0.983	1.07	0.959	1.09	–	0.688	0.69	0.683	0.808	–	0.779	0.706	0.771	0.835
PC-14	0.788	0.893	0.725	0.725	0.776	0.135	0.153	0.141	0.13	0.135	0.317	0.337	0.338	0.387	0.395	0.209	0.159	0.22	0.205	0.228
RERF-LC-KJ	0.897	0.975	0.782	0.842	0.816	0.393	0.455	0.459	0.441	0.476	0.795	0.953	0.976	0.97	0.952	0.638	0.627	0.745	0.577	0.611
SW 900	0.95	0.76	0.826	0.971	0.653	0.439	0.464	0.495	–	0.458	0.552	0.571	0.48	–	0.702	0.385	0.424	0.457	–	0.397
